Test results: ChEMBL document CHEMBL1153335, “Incorporation of neutral C-terminal residues in 3-amidinophenylalanine-derived matriptase inhibitors” (Bioorg Med Chem Lett, 2009)
pKi: −log10 of the molar value.

Key:
[1] = biological target: Urokinase-type plasminogen activator (Homo sapiens, UniProt P00749); experiment: Inhibition of uPA
[2] = biological target: Prothrombin (Homo sapiens, UniProt P00734); experiment: Inhibition of thrombin
[3] = biological target: Coagulation factor X (Homo sapiens, UniProt P00742); experiment: Inhibition of factor 10a
Sequence of Coagulation factor X (P00742 41-179 limits assumed): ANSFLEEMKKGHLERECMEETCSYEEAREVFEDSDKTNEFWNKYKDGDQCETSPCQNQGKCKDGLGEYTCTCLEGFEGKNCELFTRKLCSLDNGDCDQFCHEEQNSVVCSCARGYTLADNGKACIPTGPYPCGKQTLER
Sequence of Coagulation factor X (P00742 235-488 limits assumed): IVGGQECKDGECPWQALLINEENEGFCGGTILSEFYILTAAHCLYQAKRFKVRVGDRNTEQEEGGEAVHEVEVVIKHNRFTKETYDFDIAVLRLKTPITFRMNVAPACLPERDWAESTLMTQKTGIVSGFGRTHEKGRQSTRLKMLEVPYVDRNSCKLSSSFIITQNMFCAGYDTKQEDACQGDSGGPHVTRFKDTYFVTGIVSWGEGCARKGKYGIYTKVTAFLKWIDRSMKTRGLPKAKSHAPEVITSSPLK

[4] = biological target: T1, Suppressor of tumorigenicity 14 protein (Homo sapiens, UniProt Q9Y5Y6); experiment: Inhibition of matriptase
T1 sequence (Q9Y5Y6 whole entry): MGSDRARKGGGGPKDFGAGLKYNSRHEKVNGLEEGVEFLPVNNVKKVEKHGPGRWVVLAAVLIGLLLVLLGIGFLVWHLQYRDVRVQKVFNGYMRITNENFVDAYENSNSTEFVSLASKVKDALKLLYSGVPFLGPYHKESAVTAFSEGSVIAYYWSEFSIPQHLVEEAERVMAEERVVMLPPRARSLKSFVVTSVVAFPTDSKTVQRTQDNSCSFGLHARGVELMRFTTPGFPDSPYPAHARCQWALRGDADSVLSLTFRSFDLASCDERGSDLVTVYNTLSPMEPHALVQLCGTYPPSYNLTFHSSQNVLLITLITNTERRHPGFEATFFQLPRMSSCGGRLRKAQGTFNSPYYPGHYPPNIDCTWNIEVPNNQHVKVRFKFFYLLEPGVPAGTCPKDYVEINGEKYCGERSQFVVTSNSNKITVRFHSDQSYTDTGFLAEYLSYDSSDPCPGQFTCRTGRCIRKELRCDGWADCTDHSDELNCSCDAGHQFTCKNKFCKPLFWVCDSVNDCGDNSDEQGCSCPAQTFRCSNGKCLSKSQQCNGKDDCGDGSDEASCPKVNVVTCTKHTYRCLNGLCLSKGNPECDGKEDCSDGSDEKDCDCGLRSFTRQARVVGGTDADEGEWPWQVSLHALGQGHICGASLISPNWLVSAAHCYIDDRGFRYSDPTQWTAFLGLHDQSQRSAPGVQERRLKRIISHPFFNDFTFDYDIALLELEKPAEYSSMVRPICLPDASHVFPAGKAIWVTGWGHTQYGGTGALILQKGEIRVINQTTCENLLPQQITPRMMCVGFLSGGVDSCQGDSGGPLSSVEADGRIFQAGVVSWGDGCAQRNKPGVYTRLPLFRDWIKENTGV

[5] = biological target: Plasminogen (Homo sapiens, UniProt P00747); experiment: Inhibition of plasmin
Sequence of Plasminogen (P00747 97-580 limits assumed): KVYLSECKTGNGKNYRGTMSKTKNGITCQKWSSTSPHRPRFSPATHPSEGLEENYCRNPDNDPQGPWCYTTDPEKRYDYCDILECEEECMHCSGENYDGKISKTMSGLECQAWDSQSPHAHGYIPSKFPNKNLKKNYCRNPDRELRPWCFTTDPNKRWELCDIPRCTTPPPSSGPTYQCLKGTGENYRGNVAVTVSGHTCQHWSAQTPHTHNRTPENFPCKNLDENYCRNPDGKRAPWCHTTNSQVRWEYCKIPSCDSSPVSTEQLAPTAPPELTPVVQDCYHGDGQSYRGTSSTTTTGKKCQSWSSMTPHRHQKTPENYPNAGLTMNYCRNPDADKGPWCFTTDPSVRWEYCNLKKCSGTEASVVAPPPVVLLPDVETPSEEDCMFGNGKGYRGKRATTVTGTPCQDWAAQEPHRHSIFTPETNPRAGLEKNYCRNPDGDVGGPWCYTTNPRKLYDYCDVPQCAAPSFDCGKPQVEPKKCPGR
Sequence of Plasminogen (P00747 581-810 limits assumed): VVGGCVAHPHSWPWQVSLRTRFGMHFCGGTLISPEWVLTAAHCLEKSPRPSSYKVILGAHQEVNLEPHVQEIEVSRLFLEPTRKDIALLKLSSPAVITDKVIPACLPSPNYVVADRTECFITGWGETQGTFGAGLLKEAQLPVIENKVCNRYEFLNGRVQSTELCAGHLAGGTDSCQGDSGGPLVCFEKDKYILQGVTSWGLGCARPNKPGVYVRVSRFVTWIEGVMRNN

[6] = test system: Rattus norvegicus; experiment: Cmax in rat assessed as melagatran level at 20 mg/kg, po after 120 mins; type: ADME, organism-based; parameters: dose 20 mg/kg, route oral; conditions: in vivo, 2 h
[7] = test system: Rattus norvegicus; experiment: Cmax in rat assessed as N-hydroxy-melagatran level at 20 mg/kg, po after 120 mins; type: ADME, organism-based; parameters: dose 20 mg/kg, route oral; conditions: in vivo, 2 h

CNC(=O)CCC(=O)N1CCN(C(=O)[C@H](Cc2cccc(C(=N)N)c2)NS(=O)(=O)c2cccc(NC(=O)CCN)c2)CC1
pKi [1]: 4.77
pKi [2]: 4.54
pKi [3]: 4.36
pKi [4]: 7.28
pKi [5]: 5.44

CNC(=O)CCCC1CCN(C(=O)[C@H](Cc2cccc(C(=N)N)c2)NS(=O)(=O)c2cccc(NC(=O)CCN)c2)CC1
pKi [1]: 5.48
pKi [2]: 6.07
pKi [3]: 5.00
pKi [5]: 5.80

N=C(N)c1cccc(C[C@H](NS(=O)(=O)c2cccc(NC(=O)CCN)c2)C(=O)N2CCC(Cc3ccccc3)CC2)c1
pKi [1]: 5.66
pKi [2]: 6.46
pKi [3]: 5.47
pKi [4]: 7.77
pKi [5]: 5.55

COC(=O)[C@H]1CCCCN1C(=O)[C@H](Cc1cccc(C(=N)N)c1)NS(=O)(=O)c1cccc(NC(=O)CCN)c1
pKi [1]: 4.12
pKi [2]: 4.62
pKi [3]: 7.00
pKi [4]: 7.00
pKi [5]: 5.31

COC(=O)[C@@H]1CCCCN1C(=O)[C@H](Cc1cccc(C(=N)N)c1)NS(=O)(=O)c1cccc(NC(=O)CCN)c1
pKi [1]: 3.90
pKi [2]: 4.97
pKi [3]: 3.90
pKi [4]: 5.62
pKi [5]: 4.16

N=C(N)c1cccc(C[C@H](NS(=O)(=O)c2cccc(NC(=O)CCN)c2)C(=O)N2CCC(CCCC(N)=O)CC2)c1
pKi [1]: 5.68
pKi [2]: 6.17
pKi [3]: 5.09
pKi [5]: 5.54

N=C(N)c1cccc(C[C@H](NS(=O)(=O)c2cccc(NC(=O)CCN)c2)C(=O)N2CCC(C(N)=O)CC2)c1
pKi [1]: 5.48
pKi [2]: 5.90
pKi [3]: 5.60
pKi [4]: 7.89
pKi [5]: 5.92

N=C(N)c1cccc(C[C@H](NS(=O)(=O)c2cccc(NC(=O)CCN)c2)C(=O)N2CCCCC2)c1
pKi [1]: 5.59
pKi [2]: 6.57
pKi [3]: 5.00
pKi [4]: 7.48
pKi [5]: 5.48

N=C(N)c1cccc(C[C@H](NS(=O)(=O)c2cccc(NC(=O)CCN)c2)C(=O)N2CCNCC2)c1
pKi [1]: 6.06
pKi [2]: 4.14
pKi [3]: 5.68
pKi [4]: 7.43
pKi [5]: 5.59

CC1CCCCN1C(=O)[C@H](Cc1cccc(C(=N)N)c1)NS(=O)(=O)c1cccc(NC(=O)CCN)c1 (some centres not stated)
pKi [1]: 4.46
pKi [2]: 6.40
pKi [3]: 4.77
pKi [4]: 6.33
pKi [5]: 5.35

CC1CCN(C(=O)[C@H](Cc2cccc(C(=N)N)c2)NS(=O)(=O)c2cccc(NC(=O)CCN)c2)CC1
pKi [1]: 5.52
pKi [2]: 6.96
pKi [3]: 5.36
pKi [4]: 7.28
pKi [5]: 5.21

N=C(N)c1cccc(C[C@H](NS(=O)(=O)c2cccc(NC(=O)CCN)c2)C(=O)N2CCCC(C(N)=O)C2)c1 (some centres not stated)
pKi [1]: 5.13
pKi [2]: 5.68
pKi [3]: 4.82
pKi [5]: 5.89

N=C(N)c1cccc(C[C@H](NS(=O)(=O)c2cccc(NC(=O)CCN)c2)C(=O)N2CCCC[C@@H]2C(=O)O)c1
pKi [1]: 5.14
pKi [2]: 5.64
pKi [3]: 4.96
pKi [4]: 6.74
pKi [5]: 5.03

N=C(N)c1cccc(C[C@H](NS(=O)(=O)c2cccc(NC(=O)CCN)c2)C(=O)N2CCCC[C@H]2C(=O)O)c1
pKi [1]: 3.71
pKi [2]: 3.80
pKi [3]: 4.52
pKi [4]: 4.96
pKi [5]: 4.10

N=C(N)c1cccc(C[C@H](NS(=O)(=O)c2cccc(NC(=O)CCN)c2)C(=O)N2CCC(CCCC(=O)O)CC2)c1
pKi [1]: 4.77
pKi [2]: 4.85
pKi [3]: 4.74
pKi [5]: 5.48

COC(=O)CCCC1CCN(C(=O)[C@H](Cc2cccc(C(=N)N)c2)NS(=O)(=O)c2cccc(NC(=O)CCN)c2)CC1
pKi [1]: 5.60
pKi [2]: 6.22
pKi [3]: 5.21
pKi [5]: 5.55

N=C(N)c1cccc(C[C@H](NS(=O)(=O)c2cccc(NC(=O)CCN)c2)C(=O)N2CCN(c3ccc(O)cc3)CC2)c1
pKi [1]: 5.08
pKi [2]: 4.84
pKi [3]: 5.60
pKi [4]: 6.82
pKi [5]: 5.60

N=C(N)c1cccc(C[C@H](NS(=O)(=O)c2cccc(NC(=O)CCN)c2)C(=O)N2CCN(C(=O)OCc3ccccc3)CC2)c1
pKi [1]: 5.48
pKi [2]: 5.85
pKi [3]: 4.72
pKi [4]: 8.12
pKi [5]: 5.89

CCOC(=O)N1CCN(C(=O)[C@H](Cc2cccc(C(=N)N)c2)NS(=O)(=O)c2cccc(NC(=O)CCN)c2)CC1
pKi [1]: 5.04
pKi [2]: 5.29
pKi [3]: 4.59
pKi [4]: 7.19
pKi [5]: 4.87

CCOC(=O)CN[C@@H](C(=O)N1CC[C@H]1C(=O)NCc1ccc(/C(N)=N\O)cc1)C1CCCCC1 [XIMELAGATRAN]
Cmax [6]: 1000 nM
Cmax [7]: 1100 nM
